Source: PubChem BioAssay AID1552 (Sanford-Burnham Center for Chemical Genomics, 2009)
Active and inactive are the calls of the source. How the calls were made is not given here.

molecular target: Ubiquitin-conjugating enzyme E2 N (Homo sapiens) (UniProt P61088); assay: UBE2N binders by NMR, biophysical, purified protein (AID 1552); conditions: NMR binding to purified UBE2N
Sequence (P61088 whole entry, looked up): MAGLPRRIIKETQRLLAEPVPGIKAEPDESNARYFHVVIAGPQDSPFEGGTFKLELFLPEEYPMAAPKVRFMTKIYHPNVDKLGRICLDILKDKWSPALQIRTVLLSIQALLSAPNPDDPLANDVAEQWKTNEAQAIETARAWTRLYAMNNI

| SMILES | Kd |
| --- | --- |
| CC(C)CCCC(C)[C@H]1CCC2C3CC[C@H]4CC(=O)CC[C@]4(C)C3CC[C@@]21C (stereo partly specified) | > 4 mM (inactive) |
| CS(=O)(=O)N1CCN(C(=O)c2ccccc2F)CC1 | > 4 mM (inactive) |
| CCCCCCCCCCCC1=C(O)C(=O)C=C(O)C1=O | > 4 mM (inactive) |
| COc1cc2c(c(OC)c1OC)-c1ccc(OC)c(=O)cc1[C@@H](NC(C)=O)CC2 | > 4 mM (inactive) |
| c1ccc(-c2nnc3sc(-c4ccncc4)nn23)cc1 | > 4 mM (inactive) |
| Clc1ccc(-n2ccnc2)nn1 | > 4 mM (inactive) |
| CCOc1nc(C)ccc1-c1noc(-c2ccncc2)n1 | > 4 mM (inactive) |
| O=C(O)C1CSC(c2cc3ccccc3nc2Cl)N1 (stereo unspecified) | > 4 mM (inactive) |
| CC(=O)Nc1ccccc1OCC(N)=O | > 4 mM (inactive) |
| O=S1(=O)CCC(NC(=S)Nc2ccc(O)cc2)C1 (stereo unspecified) | > 4 mM (inactive) |
| Cn1c(=O)c2c([nH]c(=O)n2C)n(C)c1=O | > 4 mM (inactive) |
| OC[C@H]1O[C@@H](O[C@H]2[C@H](O)[C@@H](O)[C@@H](O)O[C@@H]2CO)[C@H](O)[C@@H](O)[C@@H]1O | > 4 mM (inactive) |
| O=c1c2ccccc2nc2n1CCS2 | > 4 mM (inactive) |
| c1ccc(Cc2nnc3sc(-c4ccncc4)nn23)cc1 | > 4 mM (inactive) |
| O=C1NC(=S)N/C1=C/c1ccc(O)c(Cl)c1 | > 4 mM (inactive) |
| C/C=C/C(=O)Nc1ccc(NC(C)=O)cc1 | > 4 mM (inactive) |
| Cc1cc(-c2ccccc2)nc2cc(C(N)=O)nn12 | > 4 mM (inactive) |
| NS(=O)(=O)c1ccc(N=C2NC(=O)CS2)cc1 | > 4 mM (inactive) |
| CN(C)C(=O)CSc1nc(N)cc(=O)[nH]1 | > 4 mM (inactive) |

| SMILES | Kd |
| --- | --- |
| CC(=O)Oc1c(-c2ccccc2)oc2c(CC=C(C)C)c3c(c(OC(C)=O)c2c1=O)C=CC(C)(C)O3 | > 4 mM (inactive) |
| O=C(O)c1ccc(-c2cccs2)cc1 | > 4 mM (inactive) |
| Cc1ccc(C(=O)NCCO)c(Cl)c1 | > 4 mM (inactive) |
| Nc1nc(-c2ccncc2)cs1 | > 4 mM (inactive) |
| Cn1c(=O)n(-c2cccc(Cl)c2)c(=O)n1C | > 4 mM (inactive) |
| COC(=O)c1ccc2nsnc2c1 | > 4 mM (inactive) |
| O=C1CNc2cc(C(=O)O)ccc2N1 | > 4 mM (inactive) |
| CC(=O)O[C@@H]1C[C@@]2(C)[C@H](c3ccoc3)C[C@H]3O[C@]32[C@]2(C)C(=O)C(O)=C3C(C)(C)C(=O)C=C[C@]3(C)C12 (stereo partly specified) | > 4 mM (inactive) |
| c1cc(C(N2CCOCC2)N2CCOCC2)ccn1 | > 4 mM (inactive) |
| CC(C)CCCC(C)[C@H]1CCC2C3CC=C4CC(=O)CC[C@]4(C)C3CC[C@@]21C (stereo partly specified) | > 4 mM (inactive) |
| COc1ccc(-c2coc3cc(OC(C)=O)cc(OC(C)=O)c3c2=O)cc1 | > 4 mM (inactive) |
| OCc1ccc(CN2CCOCC2)cc1 | > 4 mM (inactive) |
| CC(C)c1c(O)ccc2c1CCC1C(C)(C)CCC[C@]21C (stereo partly specified) | > 4 mM (inactive) |
| CN(C)C(=O)C12CCC(C)(C(=O)O1)C2(C)C (stereo unspecified) | > 4 mM (inactive) |
| COn1c(=O)c(C)[n+]([O-])c2ccccc21 | > 4 mM (inactive) |
| O=C(Oc1ccc(-c2nnco2)cc1)N1CCCCC1 | > 4 mM (inactive) |
| Nc1ccccc1N=C1CNC(=O)C1 | > 4 mM (inactive) |
| COc1ccc(-c2coc3cc(O)ccc3c2=O)c(O)c1O | > 4 mM (inactive) |
| CC(=O)c1ccc(NC(=S)N2CCC(O)CC2)cc1 | > 4 mM (inactive) |

| SMILES | Kd |
| --- | --- |
| CSc1ccccc1C(=O)N1CCOCC1 | > 4 mM (inactive) |
| CN1CCC(N(C)Cc2cccnc2)CC1 | > 4 mM (inactive) |
| Cc1nn2c(-c3ccco3)nnc2c2ccccc12 | > 4 mM (inactive) |
| Cc1ccc2cc(CO)ccc2n1 | > 4 mM (inactive) |
| CNC(=O)CC1Sc2ccccc2NC1=O (stereo unspecified) | > 4 mM (inactive) |
| OC(CCl)c1ccc(-n2cncn2)cc1 (stereo unspecified) | > 4 mM (inactive) |
| OCc1cc2ccccc2o1 | > 4 mM (inactive) |
| COc1ccc(CC(=O)c2ccc(O)cc2O)cc1 | > 4 mM (inactive) |
| COC(=O)C[C@@H]1C2(C)C(=O)[C@@H](CC3=C4C=C(OC)O[C@@H](c5ccoc5)[C@]4(C)CCC32)[C@H](O)C1(C)C (stereo partly specified) | > 4 mM (inactive) |
| Cc1ccc(F)cc1NC(=O)c1ccc2c(c1)OCO2 | > 4 mM (inactive) |
| COc1cc(CNC(=O)CCCC/C=C/C(C)C)ccc1O | > 4 mM (inactive) |
| O=C(Nn1cnnc1)c1cc2c(s1)CCCC2 | > 4 mM (inactive) |
| Cc1ccccc1-n1c(-c2cccnc2)n[nH]c1=S | > 4 mM (inactive) |
| CCN1C(=O)c2c(C)nc3ccccc3c2C1=O | > 4 mM (inactive) |
| Cc1cc(C(=O)NN2CCOCC2)c(C)o1 | > 4 mM (inactive) |
| Cc1cc(=O)n2ccc(CN3CCOCC3)c(O)c2n1 | > 4 mM (inactive) |
| O=C1NC(=S)N/C1=C\c1cccnc1 | > 4 mM (inactive) |
| O=C(Nc1ccc(N2CCOCC2)cc1)c1cnsn1 | > 4 mM (inactive) |
